Reference: patent US12629336B2, “Compositions and methods of use thereof for treatment of mastitis” (CureMast, Inc., priority 2020, dated 2026)
Where “and” joins values, the source holds several entries; their conditions need not be identical. Equal values may be shown once. Read-outs that look alike come from different tables or passages of the source.

What was measured:
[1] = paper chromatography: migration/release of NAC from monoolein emulsions; format: physicochemical; details: deionized water as solvent, tetrazolium/ammonia detection
Text: Paper chromatography was utilized to evaluate the release of soluble NAC from the formulations of Examples 1 and 2 using a colorimetric reagent to develop the chromatograms as follows:
Three strips of chromatography paper were marked with pencil to indicate the “origin” and spotted with a small dot of each of the two samples. The third strip was spotted with a drop of aqueous NAC only. Each strip was suspended in a separate jar with deionized water just covering the bottom of the jar. The bottom edge of each paper strip was positioned to be immersed in water, which gradually migrated up the strip. After upward water migration wet approximately 6 to 8 cm of the paper, the “solvent front” was marked with pencil and the strips were allowed to dry completely.
Tetrazolium blue chloride (Sigma no. T4375, lot no. SHBM0991) was dissolved in denatured ethyl alcohol to obtain a 1% solution and transferred to a small spray bottle. The dry chromatography strips were placed in a chemical fume hood, sprayed with the tetrazolium solution, and allowed to dry again. An ammonia chamber was created by coving the bottom of a large glass canister with concentrated ammonium hydroxide and the chromatography paper strips were suspended just above the liquid with the canister covered until a purple color developed, indicating the presence of NAC.

bacteria = details: in vitro; value in brackets; cited from earlier work
epithelial cells = details: in vitro, cited from earlier work

Row | Compound | Rf value of NAC [1] | migration of NAC from the origin [1] | minimum inhibitory concentration (MIC) required to kill bacteria (bacteria) | cytotoxic limit (CTL) above which epithelial cells are killed (epithelial cells) | cytotoxic limit (CTL) above which epithelial cells are killed (epithelial cells; value in brackets)
1 | CC(=O)N[C@@H](CS)C(=O)O [aqueous NAC, N-acetyl-L-cysteine] | 0.91 and 0.67 | migrated from the origin |  |  | 
2 | polyhexamethylene biguanide hydrochloride [PHMB] |  |  | 0.01% | greater than 15 mg per liter | > 0.15%
